# Data from patent publication US20140228440A1, “1-AMINO-ALKYLCYCLOHEXANE DERIVATIVES FOR THE TREATMENT OF INFLAMMATORY SKIN DISEASES” (MERZ PHARMA GmbH & CO. KGaA, priority 2008, published 2014).
# Tests used:
# [1] = tested on: ear swelling response induced by croton oil; experiment: Irritant dermatitis mouse model (croton oil); format: in vivo, C57BL/6N male mice; details: i.p. 5 mg/kg 1 hr before, 3.2 mg/kg 1 hr and 3 hr after irritation; 7 hours and 24 hours
# Protocol: In order to further test for antiinflammatory properties, an irritant dermatitis mouse model is used. Induction of an ear swelling response by croton oil is a toxic reaction. This response is a concentration-dependent phenomenon, independent of sensitized lymphocytes.
# 20 μl of 1% croton oil in acetone is applied on the left ear. Ear swelling is measured after 7 hours and 24 hours. Ear swelling is quantified with a springloaded micrometer. […] An additional group is treated with neramexane (as described above) and croton oil.
# Sensitization results are analyzed using student test (comparison between treatment and positive control).
# Propionibacterium acnes = experiment: Log reduction assay; format: cell-based; details: log reduction experiment
# Protocol: In order to determine the efficacy of Neramexane against a specific microorganism population (i.e., Propionibacterium acnes), a log reduction assay is performed. The organisms are prepared by inoculating the fluid thioglycolate (FTM). The microorganism is then incubated at 35.2±2.5° C. for 24 hours. The microbial suspension is adjusted to approximately 107 to 108 colony forming units (CFU) per mL and labeled as the stock suspension. […] Then […] is transferred into 11 mL of DI water to prepare a 3.125% solution. This solution is then inoculated with the microorganism and tested at time intervals of 30 seconds, 1 minute, and 5 minutes. One milliliter from each dilution is spread plated in duplicate onto tryptic soy agar with 5% sheep blood. The plates are incubated anaerobically at 35.2±2.5° C. for a minimum of 48 hours. The same procedure is repeated for the Phosphate Buffer Saline control. After the incubation period, all plates are counted to determine the number of microorganisms remaining at each time point. The concentration of each microorganism for the control and product is calculated for each interval. The log reduction is calculated to determine the change (reduction or increase) of the microorganism population relative to a starting inoculum. The minimum required bactericidal concentration is defined as a 3 log reduction from the initial inoculum.
# [2] = tested on: Staphylococcus aureus ATCC 6538; experiment: MIC by the agar dilution method; format: cell-based; details: pH 5.5
# Protocol: (§1) To assess the anti-microbial potency of Neramexane against bacteria strains which are relevant for atopic dermatitis and localized skin infections (“impetigo”), the minimal inhibitory concentration (MIC) against the following bacteria is established:
# (§2) The MICs of the samples are determined using the agar dilution method based on DIN 58940. Petri dishes of 5.5 cm diameter are poured with 2.5 ml of freshly prepared Mueller-Hinton agar 2-fold concentrated (Merck company, Cat-No 1.05437), pH 5.5, maintained in liquid form at 50° C., to which the sample dilutions at various concentrations has been added at 50.0 vol.-%.
# (§3) Neramexane-Mesylate is tested in the concentration range of 6.25-1*10^−2%. All test solutions are adjusted to pH 5.5.
# (§4) For inoculation, 1 μl of the respective germ suspension is placed on the centre of each agar plate. After drying, inoculated plates are incubated at 36.0±2.0° C. The basis for the length of incubation period is the respective growth control cultivated in parallel.
# (§5) The test microbe suspension is prepared by inoculating a few individual colonies of the respective bacteria into sterile saline solution until a turbidity corresponding to the McFarland standard 1.0 (approximately 10^8 cfu/ml) is reached. After that, the test microbe suspensions are further diluted 1:10 with saline solution and the microbial counts (see Table 33) are determined by the surface spread method using a spiral plater.
# (§6) The agar plates are incubated under the conditions given in Table 34 and subsequently evaluated. The MIC-values as given represent the lowest concentration of the active substance at which there is no macroscopically visible growth. Minimal, barely visible growth or few small individual colonies are evaluated as inhibition.
# (§7) The growth of bacteria is indicated for the duplicate plates by a +(i.e., growth) or a −(i.e., no growth), +− indicates weak growth on both plates or growth on one plate and no growth on the other plate. Both bacteria-strains show appropriate growth on the respective control plate not containing any test compound. No influence of the used diluent (Aqua purifacata) is observed. No contamination is observed on the control-plates. In general it has to be considered that values determined by the used method can vary by a factor of 2 (for 1:2 dilutions).
# [3] = tested on: Streptococcus pyogenes ATCC 12344; experiment: MIC by the agar dilution method; format: cell-based; details: pH 5.5, compared with Staphylococcus aureus
# Protocol: as §1, §2, §3, §4, §5, §6, §7
# [4] = tested on: DNFB-induced contact hypersensitivity (ear swelling response); experiment: Contact hypersensitivity (CHS) mouse model; details: i.p. 5 mg/kg 1 hr before
# [5] = tested on: Propionibacterium acnes ATCC 11828; experiment: MIC and MBC by the agar dilution method; format: cell-based; details: pH 5.5
# Protocol: (§8) To assess the anti-microbial potency of Neramexane against acne relevant bacterias the minimal inhibitory concentration (MIC) and minimal bactericidal concentration (MBC) against the following bacterias is established: The MICs of the samples are determined using the agar dilution method based on DIN 58940. Petri dishes of 5.5 cm diameter are poured with 2.5 ml of freshly prepared Mueller-Hinton agar (Merck company, Cat-No 1.05437) or Wilkins-Chalgren-Agar (Oxoid company, Cat-No CM643), maintained in liquid form at 50° C., to which the sample dilutions at various concentrations have been added at 50.0 vol.-%. To prepare the starting sample dilutions, a 12.5%, 3.12% suspension of the respective sample solution is prepared with Aqua purificata. From these stock-solutions, further dilutions are prepared with Aqua purificata. All test compounds are adjusted to pH 5.5. For test product no. 1, separate dilutions adjusted to pH 6.0 and pH 7.4 are also prepared. For inoculation, 1 μl of the respective germ suspension is placed on the centre of each agar plate. After drying, inoculated plates are incubated at 36.0±2.0° C. The basis for the length of incubation period is the respective growth control cultivated in parallel. The test microbe suspension is prepared by inoculating a few individual colonies of the respective bacteria into sterile saline solution until a turbidity corresponding to the McFarland standard 1.0 (approximately 10^8 cfu/ml) is reached. After that, the test microbe suspensions are further diluted 1:10 with saline solution and the microbial counts (see Table 21) are determined by the surface spread method using a spiral plater. The agar plates are incubated under the conditions given in Table 22 and subsequently evaluated. The MIC-values as given represent the lowest concentration of the active substance at which there is no macroscopically visible growth. Minimal, barely visible growth or few small individual colonies are evaluated as inhibition. [table] All negative tests of the determination of the minimal bactericial concentration are the basis of verification of remaining germs, the inoculated agar segments are cut and put in Mueller-Hinton-Bouillon (germ 1) or Wilkins-Chalgren-Bouillon (germs 2-4). After an adequate incubation period at 36.0±2.0° C. (as judged from a control without test compound), the tests are checked manually on microbial growth (=turbidity) and the minimal bactericidal concentration is determined. MBC indicates the concentration without marked turbidity. Grown germs are checked for identity to rule out unspecific contaminations. The following results are summarized and tabulated: • a) Results of the Minimal Inhibitory Concentration (MIC)* • b) Results of the Minimal Bactericidal Concentration (MBC) *The MIC is the concentration without macroscopical growth. Scarcely apparent, minimum growth or few single colonies are not considered. The controls must have a respectively good developed growth. There must be no growth on the agar plates for the sterile control. The growth of bacteria is indicated for the duplicate plates by a +(i.e., growth) or a −(i.e., no growth), +− indicates weak growth on both plates or growth on one plate and no growth on the other plate. All bacteria show appropriate growth on the respective control plate not containing any test compound. No influence of the used diluent (Aqua purifacata) was observed. No contamination is observed on the control-plates.
# [6] = tested on: Propionibacterium avidum ATCC 25577; experiment: MIC and MBC by the agar dilution method; format: cell-based; details: pH 5.5
# Protocol: as §8
# [7] = tested on: Propionibacterium granulosum ATCC 11829; experiment: MIC and MBC by the agar dilution method; format: cell-based; details: pH 5.5
# Protocol: as §8
# [8] = tested on: Staphylococcus epidermidis ATCC 12228; experiment: MIC and MBC by the agar dilution method; format: cell-based; details: pH 5.5
# Protocol: as §8
# [9] = final concentration 0.002 % (Neramexane-HCl)
# [10] = final concentration 0.005 % (Neramexane-HCl)
# [11] = final concentration 0.01 % (Neramexane-HCl)
# [12] = final concentration 0.02 % (Neramexane-HCl)
# [13] = final concentration 0.04 % (Neramexane-HCl)
# [14] = final concentration 0.08 % (Neramexane-HCl)
# [15] = final concentration 0.16 % (Neramexane-HCl)
# [16] = final concentration 0.31 % (Neramexane-HCl)
# [17] = final concentration 0.63 % (Neramexane-HCl)
# [18] = final concentration 1.56 % (Neramexane-HCl)
structure (smiles),measurement,setting,value
"CC1(C)CC(C)(C)CC(C)(N)C1 [Neramexane, 1-amino-1,3,3,5,5-pentamethylcyclohexane]",ear swelling response induced by croton oil,[1],reduces the ear swelling response induced by croton oil to some degree
same,antibacterial activity,Propionibacterium acnes,exhibits antibacterial activity against Propionibacterium acnes
same,antibacterial activity,[2],exhibits antibacterial activity with respect to Staphylococcus aureus
same,antibacterial activity,[3],acts even to greater extend against Streptococcus pyogenes
same,ear swelling response,"[4]; 3.2 mg/kg 1 hr and 3 hr after challenge, 24 hours after elicitation",significantly reduces ear swelling response
same,induction of an immune response (sensitization),[4]; 3.2 mg/kg 1 hr and 3 hr after sensitization,does not appear to have an impact on the induction of an immune response
CC1(C)CC(C)(C)CC(C)(N)C1.Cl [Neramexane-HCl],growth of bacteria on duplicate plates (MIC determination),[5]; [9],+ +
same,growth of bacteria on duplicate plates (MIC determination),[5]; [10],+ +
same,growth of bacteria on duplicate plates (MIC determination),[5]; [11],+ +
same,growth of bacteria on duplicate plates (MIC determination),[5]; [12],+ +
same,growth of bacteria on duplicate plates (MIC determination),[5]; [13],+ +
same,growth of bacteria on duplicate plates (MIC determination),[5]; [14],+ +
same,growth of bacteria (MBC determination),[5]; [15],+ +
same,growth of bacteria on duplicate plates (MIC determination),[5]; [15],− −
same,growth of bacteria (MBC determination),[5]; [16],+ +
same,growth of bacteria on duplicate plates (MIC determination),[5]; [16],− −
same,growth of bacteria (MBC determination),[5]; [17],+ +
same,growth of bacteria on duplicate plates (MIC determination),[5]; [17],− −
same,growth of bacteria (MBC determination),[5]; [18],− −
same,growth of bacteria on duplicate plates (MIC determination),[5]; [18],− −
same,MBC,[5],1.56%
same,MIC,[5],0.16%
same,growth of bacteria on duplicate plates (MIC determination),[6]; [9],+ +
same,growth of bacteria on duplicate plates (MIC determination),[6]; [10],+ +
same,growth of bacteria on duplicate plates (MIC determination),[6]; [11],+ +
same,growth of bacteria on duplicate plates (MIC determination),[6]; [12],+ +
same,growth of bacteria on duplicate plates (MIC determination),[6]; [13],+ +
same,growth of bacteria on duplicate plates (MIC determination),[6]; [14],+ −
same,growth of bacteria (MBC determination),[6]; [15],+ +
same,growth of bacteria on duplicate plates (MIC determination),[6]; [15],− −
same,growth of bacteria (MBC determination),[6]; [16],+ +
same,growth of bacteria on duplicate plates (MIC determination),[6]; [16],− −
same,growth of bacteria (MBC determination),[6]; [17],+ +
same,growth of bacteria on duplicate plates (MIC determination),[6]; [17],− −
same,growth of bacteria (MBC determination),[6]; [18],− −
same,growth of bacteria on duplicate plates (MIC determination),[6]; [18],− −
same,MBC,[6],1.56%
same,MIC,[6],0.16%
same,growth of bacteria on duplicate plates (MIC determination),[7]; [9],+ +
same,growth of bacteria on duplicate plates (MIC determination),[7]; [10],+ +
same,growth of bacteria on duplicate plates (MIC determination),[7]; [11],+ +
same,growth of bacteria on duplicate plates (MIC determination),[7]; [12],+ +
same,growth of bacteria on duplicate plates (MIC determination),[7]; [13],+ +
same,growth of bacteria (MBC determination),[7]; [14],+ +
same,growth of bacteria on duplicate plates (MIC determination),[7]; [14],− −
same,growth of bacteria (MBC determination),[7]; [15],+ +
same,growth of bacteria on duplicate plates (MIC determination),[7]; [15],− −
same,growth of bacteria (MBC determination),[7]; [16],+ +
same,growth of bacteria on duplicate plates (MIC determination),[7]; [16],− −
same,growth of bacteria (MBC determination),[7]; [17],− −
same,growth of bacteria on duplicate plates (MIC determination),[7]; [17],− −
same,growth of bacteria (MBC determination),[7]; [18],− −
same,growth of bacteria on duplicate plates (MIC determination),[7]; [18],− −
same,MBC,[7],0.63%
same,MIC,[7],0.08%
same,growth of bacteria on duplicate plates (MIC determination),[8]; [9],+ +
same,growth of bacteria on duplicate plates (MIC determination),[8]; [10],+ +
same,growth of bacteria on duplicate plates (MIC determination),[8]; [11],+ +
same,growth of bacteria on duplicate plates (MIC determination),[8]; [12],+ +
same,growth of bacteria on duplicate plates (MIC determination),[8]; [13],+ +
same,growth of bacteria on duplicate plates (MIC determination),[8]; [14],+ +
same,growth of bacteria on duplicate plates (MIC determination),[8]; [15],+ +
same,growth of bacteria on duplicate plates (MIC determination),[8]; [16],+ +
same,growth of bacteria (MBC determination),[8]; [17],+ +
same,growth of bacteria on duplicate plates (MIC determination),[8]; [17],− −
same,growth of bacteria (MBC determination),[8]; [18],+ +
same,growth of bacteria on duplicate plates (MIC determination),[8]; [18],− −
same,MBC,[8],>1.56%
same,MIC,[8],0.63%
